Reference: US11542282B2, “Low affinity poly(AD-ribose) polymerase 1 dependent cytotoxic agents” (THE TRUSTEES OF THE UNIVERSITY OF PENNSYLVANIA, priority 2018, dated 2023)

Tests used:
PARP-1 = PARP-1 (Homo sapiens, UniProt P09874); experiment: PARP-1 radioligand binding in live OVCAR8 cells ([125I]KX1 competition); settings: for IC50: radioligand binding in OVCAR8 cells; for enzyme affinity in contrast to respective boc-protected analogue: free-amine derivatives
Description: Cells were cultured using standard techniques at 37° C. with 5% CO2 and 15% 02. […] Genetically engineered PARP-1 and PARP-2 double knockout mouse embryonic fibroblast (MEF) were used for cell viability studies with wildtype control. All cells were cultured in RPMI 1640 with 10% FBS and 1% penicillin/streptomycin.
The affinity of each compound for the PARP-1 enzyme was evaluated using a radioligand binding method described in Makvandi, A radiotracer strategy to quantify PARP-1 expression in vivo provides a biomarker that can enable patient selection for PARP inhibitor therapy. Cancer Research 2016. Briefly, OVCAR8 ovarian cancer cells were seeded in 96-well Stripwell plates at a density of 40,000 cells/well 24 hrs prior to the study. On the day of study, compounds were diluted in RPMI to concentrations of 100 μM-0.064 nM. […] Reactions were allowed to equilibrate for 1 hr and were then washed with 200 μL of PBS. Wells were separated and counted on an automatic Wizard gamma counter (Perkin Elmer, Waltham Mass.). […] Experiments were repeated three times with adjusting dose concentrations to increase accuracy of IC50 values.
Compounds 10-17 were evaluated for PARP-1 inhibition using a radioligand binding assay protocol with BRCA1 methylated ovarian cancer cells (OVCAR8) as described above. See, Table 3. […] Compared to 1a, oxaazaspiro analogue 1b performed slightly better with scaffold 10b displaying a PARP-1 binding value of 24.9 nM.

[1] = test system: MEF PARP-2 (-/-) KO cells; experiment: Cell viability assay in MEF PARP-2 KO-/- cells; format: cell-based, mouse; settings: Mus musculus, NA = Not applicable, no cell death observed
Description: Genetically engineered PARP-1 and PARP-2 double knockout mouse embryonic fibroblast (MEF) were used for cell viability studies with wildtype control.
Cell viability assays were carried out using four cell lines including OVCAR8, MEF wt, MEF PARP-1 (−/−) KO, and MEF PARP-2 (−/−) KO as described in Makvandi cited above. Briefly, cells were seeded in black wall clear bottom 96-well plates at concentrations of 1,000 cells/well. […] Plates were read on an Enspire multimode plate reader (Perkin Elmer). Data was normalized to percent survival at each concentration evaluated by diving the luminescent signal in treated wells vs. the average of vehicle controls. Experiments were repeated three times and all compounds were assayed during each experiment.
This isogenic model was selected due to the highly conserved nature of the PARP catalytic domain, all-owing investigation in enzyme specificity.
The cell cytotoxicity profile of these selected compounds in MEF PARP-2 KO−/− cell lines was then analyzed as described above.

Chain of PARP-1 (P09874 whole entry): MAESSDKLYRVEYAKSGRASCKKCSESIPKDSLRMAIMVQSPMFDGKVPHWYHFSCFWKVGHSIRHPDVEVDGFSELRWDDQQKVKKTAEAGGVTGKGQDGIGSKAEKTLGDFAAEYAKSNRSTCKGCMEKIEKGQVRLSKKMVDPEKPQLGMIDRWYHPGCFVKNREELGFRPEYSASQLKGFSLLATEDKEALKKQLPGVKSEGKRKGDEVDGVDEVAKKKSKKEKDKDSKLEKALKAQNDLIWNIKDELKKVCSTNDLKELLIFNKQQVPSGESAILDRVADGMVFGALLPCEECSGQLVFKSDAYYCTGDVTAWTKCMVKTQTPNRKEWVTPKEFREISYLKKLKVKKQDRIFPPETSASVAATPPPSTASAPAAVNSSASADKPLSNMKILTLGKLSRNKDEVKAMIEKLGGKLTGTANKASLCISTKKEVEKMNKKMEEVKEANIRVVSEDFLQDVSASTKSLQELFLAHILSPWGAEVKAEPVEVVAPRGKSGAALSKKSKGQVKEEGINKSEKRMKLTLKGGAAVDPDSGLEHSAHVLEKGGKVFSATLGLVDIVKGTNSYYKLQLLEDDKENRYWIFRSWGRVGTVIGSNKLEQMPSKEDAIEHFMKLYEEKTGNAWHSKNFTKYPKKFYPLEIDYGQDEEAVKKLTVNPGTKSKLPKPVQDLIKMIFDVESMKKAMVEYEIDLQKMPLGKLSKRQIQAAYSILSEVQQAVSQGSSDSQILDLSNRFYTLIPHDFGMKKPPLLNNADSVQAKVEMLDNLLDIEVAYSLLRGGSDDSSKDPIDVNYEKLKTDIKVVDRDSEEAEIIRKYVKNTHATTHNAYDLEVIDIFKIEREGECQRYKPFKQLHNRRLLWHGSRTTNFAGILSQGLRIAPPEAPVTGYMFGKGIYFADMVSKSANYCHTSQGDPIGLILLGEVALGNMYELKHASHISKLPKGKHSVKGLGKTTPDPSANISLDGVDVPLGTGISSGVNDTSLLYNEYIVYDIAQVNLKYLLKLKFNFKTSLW

O=C(c1cc(Cc2n[nH]c(=O)c3ccccc23)ccc1F)N1CCC12CCNCC2 [Compound 13c, 4-(4-Fluoro-3-(1,7-diazaspiro[3.5]nonane-1-carbonyl)benzyl)phthalazin-1(2H)-one]
EC50 (PARP-1): 110 nM
fold improvement of PARP-1 affinity upon removing the boc-group (PARP-1; 13c vs 13b): ~29 fold
IC50 (PARP-1): 110 nM
EC50 [1]: 106 µM

O=C(c1cc(Cc2n[nH]c(=O)c3ccccc23)ccc1F)N1CCC2(CCNCC2)CC1 [Compound 17c, 4-(4-Fluoro-3-(3,9-diazaspiro[5.5]undecane-3-carbonyl)benzyl)phthalazin-1(2H)-one]
EC50 (PARP-1): 234 nM
enzyme affinity in contrast to respective boc-protected analogue (PARP-1): slight increase in enzyme affinity
EC50 [1]: 59.7 µM

O=C(c1cc(Cc2n[nH]c(=O)c3ccccc23)ccc1F)N1CCC12CNC2 [Compound 11c, 4-(4-Fluoro-3-(1,6-diazaspiro[3.3]heptane-1-carbonyl)benzyl)phthalazin-1(2H)-one]
enzyme affinity in contrast to respective boc-protected analogue (PARP-1): slight increase in enzyme affinity

O=C(c1cc(Cc2n[nH]c(=O)c3ccccc23)ccc1F)N1CCC2(CCN(C(=O)C3CC3)C2)C1 (stereo not drawn) [Compound 15d, 4-(3-(7-(Cyclopropanecarbonyl)-2,7-dizaspiro[4.4]nonane-2-carbonyl)-4-fluorobenzyl)phthalazin-1(2H)-one]
EC50 (PARP-1): 2590 nM
EC50 [1]: 70.9 µM

O=C(c1cc(Cc2n[nH]c(=O)c3ccccc23)ccc1F)N1CC2(CC(c3ccc(F)cc3)C2)C1 [Compound 39, 4-(4-fluoro-3-(6-(4-fluorophenyl)-2-azaspiro[3.3]heptane-2-carbonyl)benzyl)phthalazin-1(2H)-one]
EC50 (PARP-1): 2.8 nM

O=C(c1cc(Cc2n[nH]c(=O)c3ccccc23)ccc1F)N1CCC2(CNC2)C1 [Compound 14c, 4-(4-Fluoro-3-(2,6-diazaspiro[3.4]octane-6-carbonyl)benzyl)phthalazin-1(2H)-one]
EC50 (PARP-1): 1240 nM

CC(C)(C)OC(=O)N1CCC2(C1)CN(C(=O)c1cc(Cc3n[nH]c(=O)c4ccccc34)ccc1F)C2 [Compound 14b]
IC50 (PARP-1): 1190 nM

O=C(c1cc(Cc2n[nH]c(=O)c3ccccc23)ccc1F)N1CC2(CNC2)C1 [Compound 10d, 4-(4-Fluoro-3-(2,6-diazaspiro[3.3]heptane-2-carbonyl)benzyl)phthalazin-1(2H)-one]
EC50 (PARP-1): 2390 nM

O=C(c1cc(Cc2n[nH]c(=O)c3ccccc23)ccc1F)N1CCC2(CCNCC2)C1 [Compound 16c, 4-(4-Fluoro-3-(2,8-diazaspiro[4.5]decane-2-carbonyl)benzyl)phthalazin-1(2H)-one]
EC50 (PARP-1): 3880 nM

O=C(c1cc(Cc2n[nH]c(=O)c3ccccc23)ccc1F)N1CCC2(CCNC2)C1 (stereo not drawn) [Compound 15c, 4-(4-Fluoro-3-(2,7-diazaspiro[4.4]nonane-2-carbonyl)benzyl)phthalazin-1(2H)-one]
EC50 (PARP-1): 1120 nM
enzyme affinity in contrast to respective boc-protected analogue (PARP-1): slight increase in enzyme affinity
EC50 [1]: 512 µM

O=C(c1cc(Cc2n[nH]c(=O)c3ccccc23)ccc1F)N1CC2(CC(OCCF)C2)C1 [Compound 37B, 4-(4-fluoro-3-(6-(2-fluoroethoxy)-2-azaspiro[3.3]heptane-2-carbonyl)benzyl)phthalazin-1(2H)-one]
EC50 (PARP-1): 10.7 ± 1.1 nM

O=C(c1cc(Cc2n[nH]c(=O)c3ccccc23)ccc1F)N1CCC(c2ccc(F)cc2)CC1 [Compound 36, 4-(4-fluoro-3-(4-(4-fluorophenyl)piperidine-1-carbonyl)benzyl)phthalazin-1(2H)-one]
EC50 (PARP-1): 1.3 nM

O=C(c1cc(Cc2n[nH]c(=O)c3ccccc23)ccc1F)N1CC2(CCNCC2)C1 [Compound 12c, 4-(4-Fluoro-3-(2,7-diazaspiro[3.5]nonane-2-carbonyl)benzyl)phthalazin-1(2H)-one]
EC50 (PARP-1): 1420 nM
enzyme affinity in contrast to respective boc-protected analogue (PARP-1): slight increase in enzyme affinity
EC50 [1]: 68.5 µM

COC1CC(NC(=O)c2cc(Cc3n[nH]c(=O)c4ccccc34)ccc2F)C1 (stereo not drawn) [Compound 18]
EC50 (PARP-1): 74.1 nM
